This passage reports T/C results from PubChem BioAssay AID192 (DTP/NCI, 2004).

Toxic doses and inconclusive results are not listed.

The experiment concerns BDF1 mice, B16 melanoma ip, median survival T/C. Nature of the experiment: NCI In Vivo Anticancer Drug Screen. Data for tumor model B16 Melanoma (intraperitoneal) in B6D2F1 (BDF1) mice. Conditions: endpoint: median survival time, higher = longer survival. The protocol:
The antitumor activity of compounds was measured in mice bearing transplantable tumors. Survival or tumor size were measured and the results are expressed as the measurement made in the treated group (T) divided by the measurement made in the vehicle treated control group (C). The tumor model used in this assay is B16 Melanoma (intraperitoneal) in B6D2F1 (BDF1) mice

The mark [1] stands for this setting: dose: 100.0 mg/kg/injection, schedule: Q04DX003 (ip), vehicle: Klucel (hydroxypropylcellulose) (HPC).
[2] abbreviates: dose: 200.0 mg/kg/injection, schedule: Q04DX003 (ip), vehicle: Klucel (hydroxypropylcellulose) (HPC).
Where [3] appears, read: dose: 400.0 mg/kg/injection, schedule: Q04DX003 (ip), vehicle: Klucel (hydroxypropylcellulose) (HPC).
Setting [4] is: dose: 12.5 mg/kg/injection, schedule: Q01DX009 (ip), vehicle: Klucel (hydroxypropylcellulose) (HPC).
Setting [5] is: dose: 25.0 mg/kg/injection, schedule: Q01DX009 (ip), vehicle: Klucel (hydroxypropylcellulose) (HPC).
The mark [6] stands for this setting: dose: 50.0 mg/kg/injection, schedule: Q01DX009 (ip), vehicle: Klucel (hydroxypropylcellulose) (HPC).
The mark [7] stands for this setting: dose: 12.5 mg/kg/injection, schedule: Q01DX009 (ip), vehicle: saline with Tween-80.
Where [8] appears, read: dose: 25.0 mg/kg/injection, schedule: Q01DX009 (ip), vehicle: saline with Tween-80.
[9] abbreviates: dose: 50.0 mg/kg/injection, schedule: Q01DX009 (ip), vehicle: saline with Tween-80.
Where [10] appears, read: dose: 100.0 mg/kg/injection, schedule: Q01DX009 (ip), vehicle: saline with Tween-80.
The mark [11] stands for this setting: dose: 200.0 mg/kg/injection, schedule: Q01DX009 (ip), vehicle: saline with Tween-80.
[12] abbreviates: dose: 100.0 mg/kg/injection, schedule: Q01DX009 (ip), vehicle: Klucel (hydroxypropylcellulose) (HPC).
Setting [13] is: dose: 200.0 mg/kg/injection, schedule: Q01DX009 (ip), vehicle: Klucel (hydroxypropylcellulose) (HPC).
The mark [14] stands for this setting: dose: 6.25 mg/kg/injection, schedule: Q01DX009 (ip), vehicle: Klucel (hydroxypropylcellulose) (HPC).

Consider `c1ccc2cc(-c3csc4ccccc34)ccc2c1`, for which the T/C is 91 % of control under setting [1], 97 % of control under setting [2] and 102 % of control under setting [3].
The matching figures for `Brc1ccc(C=C2c3ccccc3-c3ccccc32)cc1`: 97 % of control, 105 % of control and 102 % of control.
Take `COc1cc([C@@H]2c3cc4c(cc3[C@H](O)[C@H]3COC(=O)[C@H]23)OCO4)cc(OC)c1OC`: the T/C (dose: 2.0 mg/kg/injection, schedule: Q01DX009 (ip), vehicle: saline) is 102 % of control; the T/C (dose: 4.0 mg/kg/injection, schedule: Q01DX009 (ip), vehicle: saline) is 109 % of control; the T/C (dose: 8.0 mg/kg/injection, schedule: Q01DX009 (ip), vehicle: saline) is 104 % of control.
For the compound `Cc1ccc(NC(=S)NC(Cc2ccccc2)c2ccccc2)cc1` (stereo not drawn), the T/C is 102 % of control under setting [4]; 100 % of control under setting [5]; 100 % of control (dose: 37.5 mg/kg/injection, schedule: Q04DX003 (ip), vehicle: Klucel (hydroxypropylcellulose) (HPC)); 100 % of control under setting [6]; 92 % of control (dose: 75.0 mg/kg/injection, schedule: Q04DX003 (ip), vehicle: Klucel (hydroxypropylcellulose) (HPC)); 100 % of control (dose: 150.0 mg/kg/injection, schedule: Q04DX003 (ip), vehicle: Klucel (hydroxypropylcellulose) (HPC)).
As for `CCCCCCOC(CN(C)C)C(Cl)(Cl)Cl` (stereo not drawn), the T/C (dose: 12.5 mg/kg/injection, schedule: Q01DX009 (ip), vehicle: distilled water + Tween-80) is 100 % of control; the T/C under setting [7] is 101 % of control; the T/C (dose: 25.0 mg/kg/injection, schedule: Q01DX009 (ip), vehicle: distilled water + Tween-80) was 97 % of control; the T/C under setting [8] was 105 % of control; the T/C (dose: 50.0 mg/kg/injection, schedule: Q01DX009 (ip), vehicle: distilled water + Tween-80) is 94 % of control; the T/C under setting [9] is 102 % of control. For the same compound, the T/C (dose: 100.0 mg/kg/injection, schedule: Q01DX009 (ip), vehicle: distilled water + Tween-80) was 89 % of control; the T/C under setting [10] is 90 % of control; the T/C under setting [11] was 89 % of control.
As for `CCOc1ccc(N2CSC(=S)N(c3ccc(OCC)cc3)C2)cc1`, the T/C is 99 % of control under setting [6], 94 % of control under setting [12] and 88 % of control under setting [13].
Turning to `CN(C)CCN1C(=O)c2cccc3cc(N)cc(c23)C1=O`, the T/C was 99 % of control (dose: 1.0 mg/kg/injection, schedule: Q01DX009 (ip), vehicle: acid diluted with saline); 110 % of control (dose: 2.0 mg/kg/injection, schedule: Q01DX009 (ip), vehicle: acid diluted with saline); 114 % of control (dose: 4.0 mg/kg/injection, schedule: Q01DX009 (ip), vehicle: acid diluted with saline); 122 % of control (dose: 8.0 mg/kg/injection, schedule: Q01DX009 (ip), vehicle: acid diluted with saline); 155 % of control (dose: 16.0 mg/kg/injection, schedule: Q01DX009 (ip), vehicle: acid diluted with saline).
`C/C=C(/C)C(=O)O[C@H]1CCN2CC=C(COC(=O)[C@@](O)([C@H](C)OC)C(C)(C)O)[C@H]12`: the T/C was 114 % of control (dose: 12.5 mg/kg/injection, schedule: Q01DX009 (ip), vehicle: saline) and 104 % of control (dose: 25.0 mg/kg/injection, schedule: Q01DX009 (ip), vehicle: saline).
Take `CCC(C)C(C(=O)O)c1ccccc1` (stereo not drawn): the T/C under setting [10] was 107 % of control; the T/C under setting [11] was 99 % of control; the T/C (dose: 400.0 mg/kg/injection, schedule: Q01DX009 (ip), vehicle: saline with Tween-80) was 93 % of control.
For `ClC(c1ccccc1)c1ccc(Br)cc1` (stereo not drawn), the T/C was 105 % of control under setting [6], 97 % of control under setting [12] and 88 % of control under setting [13].
For `S=C1SCN(C2CCCCC2)CN1C1CCCCC1`, the T/C is 93 % of control under setting [1], 90 % of control under setting [2] and 86 % of control under setting [3].
Consider `COc1ccc(NC(=O)Oc2ccc(OC)cc2)cc1`, for which the T/C reads like this: under setting [12], 90 % of control; under setting [13], 93 % of control; (dose: 400.0 mg/kg/injection, schedule: Q01DX009 (ip), vehicle: Klucel (hydroxypropylcellulose) (HPC)) 93 % of control.
For the compound `Cc1ccc(S(=O)(=O)N(CCO)CC(C)O)cc1` (stereo not drawn), the T/C under setting [1] was 105 % of control, the T/C under setting [2] was 94 % of control and the T/C under setting [3] is 100 % of control.
As to `CCCCC(C=O)(C=C=C(C)C)CC` (stereo not drawn), the T/C (dose: 100.0 mg/kg/injection, schedule: Q04DX003 (ip), vehicle: saline with Tween-80) is 88 % of control and the T/C (dose: 200.0 mg/kg/injection, schedule: Q04DX003 (ip), vehicle: saline with Tween-80) is 95 % of control.
Consider `CC(=O)CC(C)=O.CC(=O)CC(C)=O.O=N[O-].O=N[O-].[Co]`, for which the T/C under setting [7] is 96 % of control, the T/C under setting [8] is 103 % of control and the T/C under setting [9] is 91 % of control.
Consider `c1cc2ccc3ccc(C4CO4)c4ccc(c1)c2c34` (stereo not drawn), for which the T/C reads like this: (dose: 3.12 mg/kg/injection, schedule: Q01DX009 (ip), vehicle: Klucel (hydroxypropylcellulose) (HPC)) 95 % of control; under setting [14], 96 % of control; under setting [4], 100 % of control; under setting [5], 86 % of control.
For `O=C1C=C(N2CC2)C(=O)C(N2CC2)=C1N1CC1`, the T/C was 111 % of control (dose: 1.0 micrograms/kg/injection, schedule: Q01DX009 (ip), vehicle: saline); 109 % of control (dose: 3.0 micrograms/kg/injection, schedule: Q01DX009 (ip), vehicle: saline); 109 % of control (dose: 6.0 micrograms/kg/injection, schedule: Q01DX009 (ip), vehicle: saline); 118 % of control (dose: 12.0 micrograms/kg/injection, schedule: Q01DX009 (ip), vehicle: saline).
On to `C=CC(CO)N1CC1` (stereo not drawn), for which the T/C was 119 % of control (dose: 1.0 mg/kg/injection, schedule: Q01DX009 (ip), vehicle: other); 116 % of control (dose: 2.0 mg/kg/injection, schedule: Q01DX009 (ip), vehicle: other); 111 % of control (dose: 4.0 mg/kg/injection, schedule: Q01DX009 (ip), vehicle: other); 100 % of control (dose: 6.25 mg/kg/injection, schedule: Q04DX003 (ip), vehicle: other); 113 % of control (dose: 8.0 mg/kg/injection, schedule: Q01DX009 (ip), vehicle: other); 100 % of control (dose: 12.5 mg/kg/injection, schedule: Q04DX003 (ip), vehicle: other). Besides, the T/C is 96 % of control (dose: 25.0 mg/kg/injection, schedule: Q04DX003 (ip), vehicle: other) and 109 % of control (dose: 50.0 mg/kg/injection, schedule: Q04DX003 (ip), vehicle: other).
Turning to `COc1cc2c(cc1OC)N(S(=O)(=O)c1ccc(C)cc1)CCCC2=O`, the T/C under setting [1] was 87 % of control, the T/C under setting [2] was 100 % of control and the T/C under setting [3] was 92 % of control.
As to `CCC(C)C(C(=O)OCCN(C)C)c1ccccc1` (stereo not drawn), the T/C reads like this: under setting [8], 100 % of control; under setting [9], 112 % of control; under setting [10], 99 % of control.
Regarding `O=[N+]([O-])/C=C/C(Cl)(Cl)Cl`, the T/C is 100 % of control under setting [14] and 96 % of control under setting [4].
As for `O=P(OCC(Br)CBr)(OCC(Br)CBr)OCC(Br)CBr` (stereo not drawn), the T/C was 100 % of control under setting [1], 102 % of control under setting [2] and 101 % of control under setting [3].
For the compound `N#CC1C(=O)c2ccccc2C1=O`, the T/C was 114 % of control under setting [8] and 106 % of control under setting [9].
For the compound `Cc1cc(NCCCCCCCNc2cc(C)nc3cc(N)ccc23)c2ccc(N)cc2n1`, the T/C (dose: 0.78 mg/kg/injection, schedule: Q01DX009 (ip), vehicle: saline with Tween-80) was 99 % of control; the T/C (dose: 1.56 mg/kg/injection, schedule: Q01DX009 (ip), vehicle: saline with Tween-80) is 100 % of control; the T/C (dose: 3.12 mg/kg/injection, schedule: Q01DX009 (ip), vehicle: saline with Tween-80) was 113 % of control; the T/C (dose: 6.25 mg/kg/injection, schedule: Q01DX009 (ip), vehicle: saline with Tween-80) is 103 % of control; the T/C under setting [7] was 100 % of control.
